# Reference: patent US7781485B2, “Hsp90 family protein inhibitors” (Kyowa Hakko Kirin Co., Ltd., priority 2004, dated 2010)
# System: human mammary cancer-derived KPL-4 cells
# Assay: Growth inhibition test on human mammary cancer-derived KPL-4 cells (WST-1)
# Type: cell-based
# Settings: KPL4, 72 hours culture, read-out: 50% growth inhibitory concentration (GI50)
# Experimental: Two thousand cells of human mammary cancer-derived KPL-4 cells were inoculated into each well of a 96-well microplate (manufactured by Nunc Corp.), and using Dulbecco's Modified Eagle's Medium (DMEM) (culture medium) containing 10% fetal calf serum (FCS), preculturing was performed in a 5% carbon dioxide incubator at 37° C. for 24 hours. A dimethyl sulfoxide (DMSO) solution of each test compound prepared in a concentration of 10 mmol/L was diluted with the culture medium step-by-step to a final concentration of […], and the diluted solution was added to each well. The individual wells were further cultured in the 5% carbon dioxide incubator at 37° C. for 72 hours. After completion of the culturing, 20 μL of WST-1 {4-[3-(4-Iodophenyl)-2-(4-nitrophenyl)-2H-5-tetrazolio]-1,3-benzene disulfonate} reagent mixture (manufactured by Roche Diagnostic Corp.) diluted to twice its original amount by culture medium was added to each well, and culturing was performed in the 5% carbon dioxide incubator at 37° C. for 1 hour. Using a microplate spectrophotometer (Model 550; manufactured by Bio-Rad), the absorbance of each well was measured at 450 nm and 655 nm. The cell growth inhibitory activity was expressed as 50% growth inhibitory concentration (GI50). The method for calculating the GI50 value is as follows. A value obtained by subtracting the absorbance at 655 nm from the absorbance at 450 nm (absorbance difference) was calculated for each well. The absorbance difference obtained for cells not treated with a test compound was designated as 100%, which was compared with the absorbance difference obtained for cells treated with each compound at various test concentrations, and thus the compound concentration at which cell growth was inhibited by 50% was calculated to determine the GI50 value.
row,SMILES,GI50 [µM]
1,"O=C(Nc1ccccc1)c1c(O)cc(O)cc1COCc1ccccc1 [Compound 1, 2-(Benzyloxymethyl)-4,6-dihydroxy-N-phenylbenzamide]",≤ 50
2,"O=C(NCc1ccccc1)c1c(O)cc(O)cc1COCc1ccccc1 [Compound 2, N-benzyl-2-(benzyloxymethyl)-4,6-dihydroxybenzamide]",≤ 50
3,"O=C(NCCc1ccccc1)c1c(O)cc(O)cc1COCc1ccccc1 [Compound 3, 2-(Benzyloxymethyl)-4,6-dihydroxy-N-phenethylbenzamide]",≤ 50
4,"O=C(NCc1ccccn1)c1c(O)cc(O)c(Cl)c1COCc1ccccc1 [Compound 9, 2-(Benzyloxymethyl)-3-chloro-4,6-dihydroxy-N-(pyridin-2-ylmethyl)benzamide]",≤ 50
5,"COC(=O)c1c(O)cc(O)c(Br)c1COCc1ccccc1 [Compound 10, 2-(Benzyloxymethyl)-3-bromo-4,6-dihydroxybenzoic acid methyl ester]",≤ 50
6,"CCc1c(O)cc(O)c(C(=O)N2CCOCC2)c1CC(=O)OC [Compound 14, [2-Ethyl-3,5-dihydroxy-6-(morpholinocarbonyl)phenyl]acetic acid methyl ester]",≤ 50
7,"CCCN(C)C(=O)c1c(O)cc(O)c(CC)c1CC(=O)OC [Compound 15, [2-Ethyl-3,5-dihydroxy-6-(N-methyl-N-propylcarbamoyl)phenyl]acetic acid methyl ester]",≤ 50
8,"CCc1c(O)cc(O)c(C(=O)N(C)CCOC)c1CC(=O)OC [Compound 16, {2-Ethyl-3,5-dihydroxy-6-[N-(2-methoxyethyl)-N-methylcarbamoyl]phenyl}acetic acid methyl ester]",≤ 50
9,"CCc1c(O)cc(O)c(C(=O)N2CCCCC2)c1CC(=O)OC [Compound 17, [2-Ethyl-3,5-dihydroxy-6-(piperidinocarbonyl)phenyl]acetic acid methyl ester]",≤ 50
10,"CCc1c(O)cc(O)c(C(=O)N2CCN(C)CC2)c1CC(=O)OC [Compound 18, [2-Ethyl-3,5-dihydroxy-6-(4-methylpiperazin-1-ylcarbonyl)phenyl]acetic acid methyl ester]",≤ 50
11,"CCc1c(O)cc(O)c(C(=O)NCc2ccccc2)c1CCO [Compound 19, N-benzyl-3-ethyl-4,6-dihydroxy-2-(2-hydroxyethyl)benzamide]",≤ 50
12,"CCc1c(O)cc(O)c(C(=O)OC)c1CC(=O)OC [Compound 23, 3-Ethyl-4,6-dihydroxy-2-(methoxycarbonylmethyl)benzoic acid methyl ester]",≤ 50
